In brackets after ≈: the same amount, converted by molar mass. One block for each compound: values may come before it.
Columns and labels:
[1] = system: Staphylococcus aureus; experiment: MIC by broth microdilution against Staphylococcus aureus; type: cell-based; settings: read-out: minimum inhibitory concentration (MIC)
[2] = system: strain ATCC 33591 of MRSA; experiment: MIC by broth microdilution against MRSA; settings: MRSA ATCC 33591, 36° C. 48 h, Resazurin
[3] = system: clinical isolates of Staphylococcus aureus; settings: pure molecule; literature value; cited from earlier work

MIC [1]: ≤ 1 mg/L
Structure (SMILES): CC(C)C(=O)c1c2c(c3oc(=O)cc(-c4ccc(O)cc4)c3c1O)CC(C)(C)C=C2 [amarilin]

Structure (SMILES): Cl.O=C(O)c1cn(C2CC2)c2cc(N3CCNCC3)c(F)cc2c1=O [hydrochloride ciprofloxacin]
minimum inhibitory concentration (MIC) [2]: 1 mg/L

Structure (SMILES): C/C(=C\C(=O)OCCCCCCCCC(=O)O)C[C@@H]1OC[C@H](C[C@@H]2O[C@H]2[C@@H](C)[C@H](C)O)[C@@H](O)[C@H]1O [mupirocin]
MIC value [3]: ~0.5 mg/L (≈ 0.999 µM)
